Legend:
isolated rat hearts [1] = assay: Reperfusion-induced arrhythmia in isolated rat hearts (Langendorff) subjected to 40-min global ischemia; parameters: species or system Wistar rats; details: 40-min ischemia, 50 min reperfusion, drug 1 μM in K-H solution, mean ± SEM
Method: Wistar rats (230-330 g) are anaesthetized by intraperitoneal injection of urethane (0.7 ml 20% w/v solution/100 g body weight), followed by intraperitoneal injection of heparin (2500 IU/rat). Having opened the thorax a cannula filled with cold Krebs-Henseleit (K-H) solution is inserted into the ascending aorta. After that the heart is excised, it is connected to Langendorff's apparatus and perfused with K-H solution (K-H solution, in mM: 118.6 NaCl; 4.7 KCl; 11.1 glucose; 25 NaHCO3; 1.66 MgSO4; 1.2 NaH2PO4, 2.52 […]; pH=7.4) under constant pressure (60 cm H2O). Prior to use, the K-H perfusion solution is passed through a cellulose acetate filter (pore size 5 μm) to remove any particulate impurities. The perfusion solution is kept at 38.5° C. and gassed with 95% O2 and 5% CO2. Two silver (AgCl) electrodes are set on the surface of the heart in the direction of electrical axis of the heart for recording electrocardiogram. Electrodes are placed on the heart in such a position that a sufficient amplitude of P wave and QRS complex is obtained. The following experimental groups are studied: 1) isolated hearts are perfused with oxygenated K-H solution for 30 min followed by 40 min of global ischemia and followed by 50 min of reperfusion with oxygenated K-H solution; 2) isolated hearts are perfused with oxygenated K-H solution for 20 min, followed by 10 min perfusion with experimental drug dissolved in K-H and then the hearts are exposed to 40 min of global ischemia followed by 50 min reperfusion with experimental drug dissolved in K-H. The used experimental drugs are compounds of formulae IV, V and VI as defined above. As a positive control direct thrombin inhibitor argatroban and low molecular weight heparin nadroparin are used. The hearts are monitored for the duration of proarrhythmic events according to the Lambeth convention (Walker et al., Cardiovascular Res 1988; 22: 447-455). Lactate dehydrogenase (LDH) release rate is determined spectophotometrically (Wroblevski & LaDue, Proc Exp Biol Med 1955; 90: 210-213) in the coronary effluent and is expressed in μkat per minute and per weight of the heart (Grasic Kuhar et al. Eur J Pharmacol 2004; 488: 137-46).

isolated rat hearts [2] = assay: Reperfusion-induced arrhythmia in isolated rat hearts (Langendorff), 25-min global no-flow ischemia, 30 min reperfusion; parameters: species or system Wistar rats; details: 1 μM and 10 μM (+DMSO 500 μL/L), n=12
Method: Hearts from male Wistar rats (300-370 g) anesthetized with diethyl-ether inhalation were perfused with Krebs-Henseleit buffer at 37° C. gassed with carbogen in Langendorff mode as described (Onody A et al., Cardiovasc Res. 2003, 58: 663-670). After an initial 15 min aerobic, normothermic perfusion period, hearts are subjected to 25-min of global, no-flow, normothermic ischemia, followed by 30 min normoxic, normothermic reperfusion. Measured parameters were heart rate and incidence of reperfusion-induced ventricular fibrillation (VF) and ventricular tachycardia (VT). Epicardial electrocardiogram was recorded throughout the experimental protocol to determine heart rate, VF and VT according to the Lambeth conventions (Walker et al., Cardiovasc Res. 1988; 22: 447-455) as described (Csonka et al., 2003; J Cardiovasc Pharmacol 41: 916-922; Ferdinandy et al., Cardiovasc Res. 1995; 58: 663-670.). Recording and evaluation of the ECG was performed using the SPEL Advanced Isosys system (Experimetria Ltd, Budapest, Hungary). Experimental groups were designed as follows: control, solvent (DMSO 500 μL/L), compound of formula IV at 1 μM (+DMSO 500 μL/L), compound of formula IV at 10 μM (+DMSO 500 μL/L), positive control: nifedipine at 0.5 μM (+DMSO 500 μL/L). Animals were randomly assigned to the different groups, however, perfusions were done in 4 parallel experiments within a group (n=12 in each group). The perfusion medium contained the drugs throughout the entire perfusion protocol in the treated groups. HR was compared to the solvent-treated group using ANOVA followed by Dunn's test. The incidence of VF and VT were compared with Chi^2 test in all groups, than each group was compared to the solvent-treated group using the Fischer's exact test.
Compound of formula IV was tested at 10 μM (Compound of formula IV, 10 μM) and 1 μM (Compound of formula IV, 1 μM), nifedipine was tested at 0.5 μM. Chi^2 test followed by the Fischer's exact test. * p<0.05; ** p<0.01; ## p<0.01 (all groups compared to DMSO group)

| SMILES | Duration VF (ventricular fibrillation) (isolated rat hearts [1]) [s] | Duration VT (ventricular tachycardia) (isolated rat hearts [1]) [s] | Duration of all proarrhythmic events (VT, VF, extrasystolia and asystolia) (isolated rat hearts [1]) [s] | incidence of reperfusion-induced ventricular fibrillation (VF) (isolated rat hearts [2]; compared to DMSO group) | incidence of reperfusion-induced ventricular tachycardia (VT) (isolated rat hearts [2]; compared to DMSO group) | heart rate (HR) (isolated rat hearts [2]; compared to solvent-treated group) |
| --- | --- | --- | --- | --- | --- | --- |
| CC1CNc2c(cccc2S(=O)(=O)N[C@@H](CCCNC(=N)N)C(=O)N2CC[C@@H](C)C[C@@H]2C(=O)O)C1 (stereo partly drawn) [Argatroban, argatroban, reference compound] | 583.6 ± 228.6 | 828.7 ± 233.7 | 1731.0 ± 445.0 |  |  |  |
| N=C(N)c1cccc(CN(NS(=O)(=O)c2ccc3ccccc3c2)C(=O)N2CCCCCC2)c1 [Compound IV] | 78.6 ± 42.6 | 87.2 ± 53.3 | 353.3 ± 148.1 | concentration-dependently decreased | not significantly changed | not significantly changed |
| N=C(N)c1cccc(CN(NS(=O)(=O)Cc2ccccc2F)C(=O)N2CCCCCC2)c1 [Compound VI] | 596.0 ± 469.4 | 99.5 ± 77.95 | 810.2 ± 461.4 |  |  |  |
| N/C(=N\O)c1cccc(CN(NS(=O)(=O)c2ccc3ccccc3c2)C(=O)N2CCCCCC2)c1 [Compound V] | 149.3 ± 86.4 | 60.0 ± 30.8 | 278.3 ± 104.2 |  |  |  |
